Measured values published in patent US9126941B2, “Treatment of hyperproliferative disorders with diarylhydantoin compounds” (The Regents of the University of California, priority 2005, dated 2015).
“Also recorded” adds a separate entry of the source.

Columns and labels:
[1] = tested on: LNCaP-AR xenograft tumors; assay: LNCaP-AR xenograft in SCID mice, tumor size and luciferase imaging (RD162); format: in vivo; conditions: for Tumor growth / tumor volume over time (FIG. 11): 10 or 50 mg/kg orally every day, 18 days; for Photon emission associated with luciferase activity (FIG. 12): day 18, 3 hours after last dose
Method: FIG. 11 is a graph of tumor size. AR overexpressing LNCaP cells were injected in the flanks of castrated […] mice, subcutaneously. When tumors reached about 100 cubic mm, they were randomized into five groups. Each group had nine animals. […] The tumors were measured three-dimensionally, width, length and depth, using a caliper.
FIG. 12 depicts experimental results of tumor size. At day 18, the animals were imaged via an optical CCD camera, 3 hours after last dose of treatment. A ROI was drawn over the tumor for luciferase activity measurement in photon/second. The right panels is a representation of the ROIs measurements.
(A) The relative tumor volume as a function of time shown for each set of mice. (B) Images of each set of mice with photon emission associated with luciferase activity at day 31 shown as color contours. (C) Rate of photon emission associated with luciferase activity shown at several times for each set of mice.
All animal experiments were performed in compliance with the guidelines of the Animal Research Committee of the University of California at Los Angeles. Animals were bought from Taconic and maintained in a laminar flow tower in a defined flora colony. LNCaP-AR and LNCaP-vector cells were maintained in RPMI medium supplemented with 10% FBS. 10^6 cells in 100 μl of 1:1 Matrigel to RPMI medium were injected subcutaneously into the flanks of intact or castrated male SCID mice. Tumor size was measured weekly in three dimensions (length×width×depth) using calipers. Mice were randomized to treatment groups when tumor size reached approximately 100 mm^3. Drugs were given orally every day at 10 mg/kg and 50 mg/kg. To obtain pharmacodynamic readout, the animals were imaged via an optical CCD camera, 3 hours after last dose of the treatment. A ROI is drawn over the tumor for luciferase activity measurement in photon/second. The right panels were a representation of the ROIs measurements.

[2] = tested on: AR-overexpressed LNCaP xenograft tumors; assay: AR-overexpressed LNCaP xenograft model in castrated male SCID mice, oral once daily; format: in vivo; conditions: 1 mg per kg orally once daily, 44 days
Method: FIG. 7. […] Mice with established LN-AR xenograft tumors were randomized and treated with indicated compounds orally once daily. Tumor size was measured by caliber.
FIG. 8. […] The tumors were taken out from the mice after 44 days of treatment, tumor lysate was extracted, and PSA level in tissue lysate was determined by ELISA.
First we examined this compound on xenograft tumors established from AR-overexpressed LNCaP cells. The engineered cells in Matrigel (Collaborative Biomedical) were injected subcutaneously into the flanks of the castrated male SCID mice. Tumor size was measured weekly in three dimensions using calipers. After xenograft tumors established (tumor size reached at least 40 mm^3), mice with tumors were randomized and treated with different doses of compounds orally once daily.

[3] = tested on: LNCaP cells; assay: MTS growth assay, hormone sensitive LNCaP cells; format: cell-based
Method: FIG. 10. Inhibitory effect on growth of hormone sensitive prostate cancer cells. […] After 4 days of incubation, cell growth was measured by MTS assay.

[4] = tested on: hormone refractory LAPC4 xenograft; assay: Hormone refractory LAPC4 xenograft model; format: in vivo, mice; conditions: 1 mg per kg orally once daily, 17 days
Method: FIG. 9. […] (A), tumor size was measured by caliber. (B), the tumors were taken out from the mice after 17 days of treatment, tumor lysate was extracted, and PSA level in tissue lysate was determined by ELISA.
This model was established from passaging of hormone sensitive prostate cancer in castrated mice, which mimics the clinical progression of prostate cancer (2).

[5] = tested on: castrated luciferase transgenic mice; assay: Castrated luciferase transgenic mice with implanted testosterone pellet, urogenital tract weight and photon emission; format: in vivo; conditions: 10 mg per kg per day, 14 days
Source text: FIG. 23 presents results of an experiment conducted with wild type nontransgenic mice (WT), castrated luciferase transgenic mice (Cast), and non-castrated luciferase transgenic mice (Intact). […] (A) Urogenital tract weight at 14 days. (B) Photon emission rate at 14 days.

[6] = tested on: DU-145 cells; assay: MTS growth assay, DU-145 cells; format: cell-based; conditions: prostate cancer cell line lacking AR expression
[7] = tested on: 3T3; assay: Growth effect on 3T3 fibroblasts; format: cell-based; conditions: normal mouse fibroblast cell line
[8] = tested on: SkBr3; assay: Growth effect on SkBr3 cells; format: cell-based; conditions: breast cancer cells
[9] = tested on: MCF7; assay: Growth effect on MCF7 cells; format: cell-based; conditions: breast cancer cells
[10] = Ranking of compounds in tiers for utility in treating prostate cancer; conditions: assay not specified
Source text: The placement of compounds into tiers was based on available data coupled with analytical judgment. Data considered included in vitro assays (AR response reporter system in LNCaP cell line, PSA level measurement, MTS mitochondrial assay) and in vivo experiments (tumor size measured directly or by emission induced by luciferase reporter gene, pharmacokinetic assays based on blood plasma levels). Not every compound was subjected to each assay. […] Judgment was applied in ranking compounds relative to each other for their utility in treating prostate cancer, in particular when ranking two compounds for which the same experiments were not performed. Characteristics considered in establishing the ranking include AR antagonism activity, lack of AR agonism in hormone refractory cells, prevention of tumor growth, tumor shrinkage, and pharmacokinetic behavior, with a longer residence time in blood being advantageous.

[11] = target: T1, AR (Homo sapiens, UniProt P10275); assay: cell-based; format: cell-based
Method: The compounds were subjected to tests using an artificial AR response reporter system in a hormone refractory prostate cancer cell line. […] After two days of incubation, reporter activities were assayed.

[12] = target: T1, AR; assay: cell-based; format: cell-based; conditions: for PSA levels of LN-AR cells (FIG. 14): various doses
Method: It is well established that PSA levels are indicators of AR activities in prostate cancer. […] The LNCaP-AR cells are a line of lymph node carcinoma of prostate cells transduced with a plasmid that makes express androgen receptors. […] After four days incubation, secreted PSA levels were assayed using PSA ELISA kits (American Qualex, San Clemente, Calif.)

[13] = Pharmacokinetics in FVB mice, drug concentration by HPLC; conditions: for Css, 10 mg/kg [μM] / Css, 25 mg/kg [μM] / Css, 50 mg/kg [μM]: steady-state concentration in mice plasma
Method: Mice were divided into groups of three for each time points. Two mice were not treated with drug and two other mice were treated with vehicle solution. […]
The drug was dissolved in a mixture 1:5:14 of DMSO:PEG400:H20. (Vehicle solution) and was administered into mice through the tail vein. The animals are warmed under a heat lamp for approximately 20 minutes prior to treatment to dilate their tail vein. […] After drug administration, the animals were euthanized via CO2 inhalation at different timepoints: […], […], 2 h, 6 h, 16 h. Animals were immediately bleed after exposure to CO2 via cardiac puncture (1 ml BD syringe+27 G ⅝ needle).
The samples for HPLC analysis were prepared according to the following procedure: • Blood cells were separated from serum by centrifugation. • To 400 μl of serum were added 80 μl of a 10 μM solution of an internal standard and 520 μl of acetonitrile. Precipitation occurred. • The mixture was vortexed for 3 minutes and then placed under ultrasound for 30 minutes. • The solid particles were filtered off or were separated by centrifugation. • The filtrate was dried under an argon flow to dryness.

[14] = tested on: L1AR cell line; assay: Luciferase activity of the L1AR cell line; format: cell-based; conditions: at a given concentration, 125 nmol to 1000 nmol
[15] = 10 mg per kg per day, LN-AR (HR) in SCID mice

T1 sequence (P10275 whole entry, looked up): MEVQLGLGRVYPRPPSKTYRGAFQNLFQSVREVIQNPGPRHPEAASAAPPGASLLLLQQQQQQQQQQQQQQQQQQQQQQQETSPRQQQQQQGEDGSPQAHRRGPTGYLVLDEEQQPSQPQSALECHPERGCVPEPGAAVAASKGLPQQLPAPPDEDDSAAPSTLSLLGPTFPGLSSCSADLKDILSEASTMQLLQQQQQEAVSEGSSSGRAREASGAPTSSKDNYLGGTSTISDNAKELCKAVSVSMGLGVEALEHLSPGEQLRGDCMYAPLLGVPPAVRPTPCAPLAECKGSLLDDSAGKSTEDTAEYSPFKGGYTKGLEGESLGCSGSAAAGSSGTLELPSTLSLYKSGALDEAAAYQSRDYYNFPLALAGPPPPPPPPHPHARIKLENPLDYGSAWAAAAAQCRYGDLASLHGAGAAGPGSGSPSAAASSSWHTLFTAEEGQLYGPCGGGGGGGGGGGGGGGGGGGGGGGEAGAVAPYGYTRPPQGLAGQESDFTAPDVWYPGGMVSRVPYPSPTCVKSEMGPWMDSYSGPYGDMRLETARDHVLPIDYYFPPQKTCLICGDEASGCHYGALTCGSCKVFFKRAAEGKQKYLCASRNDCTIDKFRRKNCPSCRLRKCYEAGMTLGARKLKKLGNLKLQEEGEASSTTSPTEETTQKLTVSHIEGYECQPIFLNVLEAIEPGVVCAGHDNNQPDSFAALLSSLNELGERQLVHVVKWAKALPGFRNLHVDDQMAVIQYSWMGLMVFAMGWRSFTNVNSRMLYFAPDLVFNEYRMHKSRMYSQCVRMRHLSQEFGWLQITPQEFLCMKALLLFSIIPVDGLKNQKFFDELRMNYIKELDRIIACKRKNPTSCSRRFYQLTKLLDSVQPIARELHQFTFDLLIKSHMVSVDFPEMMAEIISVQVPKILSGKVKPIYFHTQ

Question: Which “Tumor growth / tumor volume over time (FIG. 11)” value [1] does the source give for `CC(O)(CS(=O)(=O)c1ccc(F)cc1)C(=O)Nc1ccc(C#N)c(C(F)(F)F)c1` (stereo not shown) [Bicalutamide, N-[4-cyano-3-(trifluoromethyl)phenyl]-3-[(4-fluorophenyl)sulfonyl]-2-hydroxy-2-methylpropanamide, reference compound] here?
Answer: tumors continued to grow

Question: And the “Photon emission associated with luciferase activity (FIG. 12)” value [1]?
Answer: remained about the same or increased

Question: What about the “Growth of LNCaP-AR xenograft tumors (FIG. 7a)” value [2] of the same compound?
Answer: did not inhibit growth

Question: What about the “Inhibition of hormone sensitive LNCaP cell growth (MTS)” value ([3]; dose-dependent) of the same compound?
Answer: mildly inhibited

Question: And the “Growth of hormone refractory LAPC4 xenograft (FIG. 9a)” value [4]?
Answer: did not inhibit

Question: And the “PSA expression in hormone refractory LAPC4 xenograft (FIG. 9b)” value [4]?
Answer: did not inhibit

Question: What about the “Photon emission associated with luciferase activity (FIG. 23)” value [5] of the same compound?
Answer: decrease

Question: What about the “Urogenital tract weight (FIG. 23)” value [5] of the same compound?
Answer: decrease

Question: What does the source list for `Cc1ccc(N2C(=S)N(c3ccc(C#N)c(C(F)(F)F)c3)C(=O)C2(C)C)cc1` [RD7, 4-[3-(4-methylphenyl)-4,4-dimethyl-5-oxo-2-thioxoimidazolidin-1-yl]-2-trifluoromethyl-benzonitrile]?
Answer: Growth inhibitory effect on DU-145 cells [6]: no growth inhibitory effect; Growth effect on 3T3 [7]: no growth effect; Potency relative to bicalutamide on hormone sensitive prostate cancer cells ([3]; FIG. 10, MTS): 10 fold; Growth effect on SkBr3 [8]: no growth effect; Growth effect on MCF7 [9]: no growth effect

Question: For `CNC(=O)CCCc1ccc(N2C(=S)N(c3ccc(C#N)c(C(F)(F)F)c3)C(=O)C23CCC3)cc1` [RD131, 4-{4-[7-(4-Cyano-3-trifluoromethylphenyl)-8-oxo-6-thioxo-5,7-diaza-spiro[3.4]oct-5-yl]phenyl}-N-methyl-butyramide], which “Activity (words, overall)” value [10] is on record?
Answer: particularly advantageous

Question: What about the IC50 [11] of the same compound?
Answer: 92 nM

Question: And the “IC50 compared with bicalutamide (FIG. 15)” value ([11]; assay not specified)?
Answer: much lower than the IC50 for bicalutamide

Question: And the “Rank order, most active to least active, relative PSA level (FIG. 4)” value ([12]; 500 nM)?
Answer: RD138>RD131>RD37>RD133>RD134>RD137>RD138>RD135>bicalutamide

Question: What about the “Decrease in PSA level of LNCaP-AR cells, comparison (FIG. 4)” value ([12]; at concentrations of 1000 nM) of the same compound?
Answer: greater decrease in PSA level of LNCaP-AR cells than RD133, RD134, and RD138

Question: What about the “PSA level, LN/AR cell line, comparison” value ([12]; for a given dose / concentration) of the same compound?
Answer: less than the PSA level upon exposure to RD128 and RD129

Question: And the “PSA levels of LN-AR cells (FIG. 14)” value [12]?
Answer: PSA levels decreased

Question: What about the “Pharmacokinetic behavior, residence time in blood” value ([13]; mice) of the same compound?
Answer: metabolize fast

Question: And the “Css, 10 mg/kg [μM]” value [13]?
Answer: 0.39 µM

Question: What about the “Css, 25 mg/kg [μM]” value [13] of the same compound?
Answer: 0.43 µM

Question: What about the “Css, 50 mg/kg [μM]” value [13] of the same compound?
Answer: 0.40 µM

Question: For `CNC(=O)c1ccc(N2C(=S)N(c3ccc(C#N)c(C(F)(F)F)c3)C(=O)C23CCC3)cc1` [RD161, N-methyl-4-[7-(4-cyano-3-trifluoromethylphenyl)-8-oxo-6-thioxo-5,7-diazaspiro[3.4]oct-5-yl]benzamide], which “Luciferase activity in LNCaP-AR cells (FIG. 3)” value [11] is on record?
Answer: acted to reduce luciferase activity

Question: And the “Rank order, most active to least active, relative luciferase activity (FIG. 3)” value ([11]; 500 nM)?
Answer: RD152>RD153>RD145>RD163>RD161=RD162>bicalutamide

Question: What about the “Luciferase activity, L1AR cell line (FIG. 24)” value [14] of the same compound?
Answer: less than the luciferase activity upon exposure to RD149

Question: What does the source list for `CNC(=O)c1ccc(N2C(=S)N(c3ccc(C#N)c(C(F)(F)F)c3)C(=O)C23CCC3)cc1F` [RD162, N-methyl-4-[7-(4-cyano-3-trifluoromethylphenyl)-8-oxo-6-thioxo-5,7-diaza-spiro[3.4]oct-5-yl]-2-fluorobenzamide]?
Answer: Tumor volume, 1 mg per kg body weight per day (FIG. 18) ([1]; 1 mg per kg per day): the rate of tumor increase decreased; Tumor volume, 10 mg per kg body weight per day (FIG. 18) ([1]; 10 mg per kg per day): tumor size decreased with time; Photon emission associated with luciferase activity (FIG. 20) [1, 15]: decrease in photon emission; Tumor size (FIG. 20) [1, 15]: decrease or stabilization of tumor size; Photon emission associated with luciferase activity (FIG. 19) ([1]; 10 mg per kg per day, day 17 relative to day 0): decreased; Tumor growth / tumor volume over time (FIG. 11) [1]: effective to prevent tumor growth and even to cause tumor shrinkage; also recorded: tumors decreased in size; Photon emission associated with luciferase activity (FIG. 12) [1]: decreased; Luciferase activity in LNCaP-AR cells (FIG. 3) [11]: acted to reduce luciferase activity; PSA levels of LN-AR cells (FIG. 21) ([12]; doses of 100, 200, 500 and 1000 nM): decreased; PSA levels of LN-AR cells (FIG. 14) [12]: PSA levels decreased; Luciferase activity, L1AR cell line (FIG. 24) [14]: less than the luciferase activity upon exposure to RD149; Css, 10 mg/kg [μM] [13]: 9.9 µM; Css, 25 mg/kg [μM] [13]: 10.7 µM; Css, 50 mg/kg [μM] [13]: 10.2 µM; Photon emission associated with luciferase activity (FIG. 23) [5]: decrease; Urogenital tract weight (FIG. 23) [5]: decrease
